This note sets out measurements from patent US11419843B2, “Small molecule BCL-2 functional converters as cancer therapeutics” (Oregon State University, priority 2016, dated 2022).

“Also recorded” adds a separate entry of the source. Like-named read-outs stand apart in the source and are kept apart here.

Data set [1] relates to MDA-MB-231/Vector and MDA-MB-231/Bcl-2 cells. The data set can be described thus: Viability screening assay in MDA-MB-231 cells with high and low Bcl-2 (CellTiter Glo). The class given is cell-based, human. The note with it: for Bcl-2 selective reduction in viability, MDA-MB-231/Bcl-2 vs MDA-MB-231/Vector: 10 μM, 10% serum; for Bcl-2 dependent reduction in viability, MDA-MB-231/Bcl-2 vs Vector: 10% FBS. How it is done: In one example, a triple negative breast cancer cell line, MDA-MB-231, was used for screening these libraries. […] At the end of the assay, cell viability was determined using the cell titer Glo assay. […] A hit was defined as a compound inducing more than 20% reduction in viability of MDA-MB-231/Bcl-2 cells, compared to vector controls (MDA-MB-231/Vector). In the next step these shortlisted small molecules were tested for their ability to convert the conformation of Bcl-2 into a pro-apoptotic one.
To screen for Bcl-2 selective compounds, MDA-MB-231 cells (MDA-MB-231/Vector and MDA-MB-231/Bcl-2) were plated at 4000 cells per well in a 96 well black opaque plate. The day after plating the cells, treatment from the library plates was done so as to add 1 μL of the compound into the cells, resulting in 10 μM concentration. For non-specific […], 25 nM of staurosporin was used. […] Post treatment viability was assessed by CellTiter Glo Cell Viability assay (Promega Inc., Madison, Wis.) as per manufacturer instructions.
Viability for test compounds in each cell line (MDA-MB-231/Vector and MDA-MB-231/Bcl-2) was normalized to their respective vehicle treatments. Compounds that had at least 20% less viability in the MDA-MB-231/Bcl-2 cell line than the MDA-MB-231/Vector cell line were selected as initial hits and shortlisted for revalidation. Revalidated compounds were reordered for further testing and characterization. All data analyses were performed using Microsoft Excel.

A further data set deals with Bcl-2 (Homo sapiens, UniProt P10415). As to the kind of experiment: Bcl-2 conformational change by Bcl-2 BH3 domain antibody and flow cytometry. The note with it: 10 μM, 10% serum. For orientation: Flow cytometry measures light scatter and fluorescence of single cells or particles in a stream.
The next data set addresses Bcl-2 loop domain (Homo sapiens, UniProt P10415). The data set can be described thus: Limited proteolysis of GST tagged Bcl-2 loop domain with trypsin. The class given is biochemical. The note with it: for Proteolysis of Bcl-2 loop domain: 50 μM, trypsin 1, 2, 4 and 8 min. On the procedure:
FIG. 11B depicts proteolysis of Bcl-2 loop domain in the presence of methotrexate. GST tagged BCl-2 loop domain was incubated with 1 μM methotrexate at the indicated times to determine if methotrexate interaction with loop domain has an effect on the proteolysis pattern upon co incubation with trypsin.
Purified GST tagged Bcl-2 loop domain was incubated with 50 μM BFC1108 at the indicated times to determine if BFC1108 interaction with loop domain has an effect on the proteolysis pattern upon co-incubation with trypsin.
FIG. 22B depicts limited proteolysis of Bcl-2 loop domain in the presence of BFC1103.
GST-Bcl-2 and GST only fragments (60 μg) were incubated with 0.1% DMSO or BFC1103 (50 μM) for 1 h and proteolyzed by 3 μg/ml of trypsin for 1, 2, 4 and 8 min. Reactions were quenched by the addition of laemmli buffer. The resulting protease cleavage fragments were resolved on a 12% SDS-PAGE gel and visualized by coomassie blue staining.
GST-Bcl-2 loop71 and GST only fragments (60 μg) were incubated with 0.1% DMSO or BFC1103 (50 μM) for 1 h and proteolyzed by 3 μg/ml of trypsin for 1, 2, 4 and 8 min. Reactions were quenched by the addition of Laemmli buffer. The resulting protease cleavage fragments were resolved on a 12% SDS-PAGE gel and visualized by Coomassie blue staining.

The subject of data set [2] is normal mammary epithelial cells (MCF-10A and HMECs). As to the kind of experiment: Viability of normal mammary epithelial cells. It is filed as cell-based, human. The source says:
FIG. 9F depicts viability of methotrexate treated breast cancer cell line (ZR-75-1) in comparison to normal mammary epithelial cells (MCF-10A and HMECs).

Data set [3] relates to Bcl-2 low and high expressing Jurkat lymphoma cells (Jurkat/Vector, Jurkat/Bcl-2). The data set can be described thus: Cell viability in Bcl-2 low and high expressing Jurkat cells. The class given is cell-based, human.
The subject of data set [4] is WT MEF, Bax−/− MEF, Bak−/− MEF and Bax−/− Bak−/− MEF cells. The data set can be described thus: Viability of MEF cells with or without Bax or Bak. The class given is cell-based, mouse. The note with it: 24 h, 10% serum; for Bax/Bak dependence of effect on MEF viability: 1 μM, WT, Bak−/− and DKO MEF; for viability at 1 µM: Mus musculus, MEF, normalized to vehicle. How it is done:
WT MEF, BAX^−/− MEF, BAK^−/− MEF and Bax^−/− Bak^−/− MEF cells were treated with MTX at 1 μM concentration for 24 h in 10% serum conditions. Viability was assessed using the Glo assay. MTX treatments were normalized to 100% of Vehicle.
FIG. 17C WT MEF, Bax−/− MEF, Bak−/− MEF and Bax−/− Bak−/− MEF cells were treated with 1 μM BFC1108 for 24 h in 10% FBS medium and viability was assessed using cell titer glo assay.
WT MEF, Bax^−/− MEF, Bak^−/− MEF and Bax^−/− Bak^−/− MEF cells were treated with 1 μM BFC1103 for 24 h in 10% FBS medium and viability was assessed using cell titer glo assay.

Another data set relates to H460 cells. As to the kind of experiment: JC-1 staining of mitochondrial membrane potential. It is filed as cell-based, human. The note with it: 16 h, 10% FBS, 10 μM for MTX and BFC1103. On the procedure: JC-1 was used to stain live cells undergoing treatment with MTX at 10 μM for 16 h and images taken with FITC and Rhodamine filters were overlayed. Cells stained orange have intact mitochondrial outer membrane and the ones turning green have compromised outer membrane indicating loss of membrane potential.
FIG. 17D JC-1 stain was used to stain live H460 cells that were treated with […] for 16 h in 10% FBS containing medium and images taken with FITC and rhodamine filters were overlaid. Cells stained orange have intact mitochondrial outer membrane and the ones turning green have compromised outer membrane indicating loss of membrane potential.
JC-1 stain was used to stain live H460 cells treated with 10 μM BFC1103 for 16 h in 10% FBS containing medium and images taken with FITC and rhodamine filters were overlaid. Cells stained orange have intact mitochondrial outer membrane and the ones turning green have compromised outer membrane indicating loss of membrane potential.

Data set [5] relates to MDA-MB-468 cells with or without Bcl-2 expression. As to the kind of experiment: Viability of MDA-MB-468 cells with Bcl-2 knockdown. The class given is cell-based, human. The note with it: 10% FBS; for Effect of Bcl-2 knockdown on viability effect in MDA-MB-468 cells: 48 h. How it is done:
For Bcl-2 knockdown experiments, MDA-MB-468 cells were seeded at 4,000 cells per well in a 96 well black plate. The day after seeding, cells were subjected to Bcl-2 knockdown with 25 ng siRNAs (Dharmacon Research, Lafayette, Colo.) or 25 ng control siRNA against luciferase (Dharmacon Research, Lafayette, Colo.) using Dharmafect as transfecting reagent. After 72 h of transfection time, cells were treated with indicated compounds for 48 h and viability was assayed with CellTiter Glo Luminescent Cell Viability Assay (Promega, Madison, Wis.).

Bcl-2 loop domain, sequence (P10415 29-90 limits assumed): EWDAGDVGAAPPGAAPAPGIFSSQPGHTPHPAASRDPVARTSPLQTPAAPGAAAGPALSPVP
Bcl-2, sequence (P10415 whole entry, the tested form may be a part): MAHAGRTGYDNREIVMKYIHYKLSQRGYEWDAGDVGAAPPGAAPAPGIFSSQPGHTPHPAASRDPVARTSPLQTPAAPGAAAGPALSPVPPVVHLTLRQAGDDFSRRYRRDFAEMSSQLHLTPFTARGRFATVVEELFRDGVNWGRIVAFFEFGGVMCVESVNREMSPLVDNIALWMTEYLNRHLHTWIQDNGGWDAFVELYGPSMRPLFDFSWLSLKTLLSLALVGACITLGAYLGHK

Regarding `CN(Cc1cnc2nc(N)nc(N)c2n1)c1ccc(C(=O)N[C@@H](CCC(=O)O)C(=O)O)cc1` [MTX, (2S)-2-[[4-[(2,4 diaminopteridin-6-yl)methylmethylamino]benzoyl]amino] pentanedioc acid], in data set [1] (24 h), the “Bcl-2 selective reduction in viability, MDA-MB-231/Bcl-2 vs MDA-MB-231/Vector” value (shortened to “Bcl-2 selective reduction … vs MDA-MB-231/Vector”) was “selectively induce more cell death in high-Bcl-2 expressing MDA-MB-231 cells”. Besides, the “Bcl-2 dependent reduction in viability, MDA-MB-231/Bcl-2 vs Vector” value in data set [1] (various concentrations, 24 h) is on record as “reduced viability in MDA-MB-231/Bcl-2 cells significantly in comparison to the MDA-MB-231/Vector control cells”. Further, the “Change in Bcl-2 conformation (BH3 domain exposure) in H460 cells” value on Bcl-2 (24 h) is “also observed in H460 cells”. Also, on Bcl-2 (24 h), the “Change in Bcl-2 conformation (BH3 domain exposure) in MDA-MB-231/Bcl-2 cells” value (“Change … in MDA-MB-231/Bcl-2 cells” below) is “considerable shift in the staining of MTX treated cells indicating change in the Bcl-2 conformation”. Besides, the “Proteolysis pattern of Bcl-2 loop domain” value on Bcl-2 loop domain (1 μM methotrexate, trypsin) is on record as “differential proteolysis pattern”. In addition, in data set [2] (similar concentrations of MTX as in cancer cells), the “Viability of normal breast epithelial cells MCF-10A and HMEC” value is reported as “relatively unaffected”. Also, the “Bcl-2 dependent effects in Jurkat Lymphoma cells” value in data set [3] (Bcl-2 low and high expressing Jurkat lymphoma cells treated for 72 hours with various concentrations) is given as “Yes”. Also, the minimal effective concentration in data set [3] (Homo sapiens, Jurkat lymphoma cells, 72 hours, n/d means no reduction was detected at concentrations tested, read-out: Lowest effective dose (minimal effective concentration that induced Bcl-2-dependent reduction in cell viability)) worked out at 0.01 µM. Moreover, in data set [3] (hypoxic conditions, 10% FBS, 24 h), the “Viability of Jurkat/Bcl-2 vs Vector under hypoxic conditions” value is on record as “significant reduction in viability of Jurkat/Bcl-2 cells compared to their Vector control”. For the same compound, the “Bcl-2 dependent apoptosis with folate supplementation” value in data set [3] (supplemented with 1 μM of folic acid) is on record as “Bcl-2 dependent apoptosis was still observed”. Further, the “Bax/Bak dependence of effect on MEF viability” value (from here on “Bax/Bak dependence of effect”) in data set [4] is on record as “viability of Bax^−/− Bak^−/− MEF (DKO) cells was not effected”. Moreover, the viability at 1 µM is ~40% in data set [4] (read-out: Viability, Bak−/− MEF); ~40% in data set [4] (read-out: Viability, Bax−/− MEF); ~30% in data set [4] (read-out: Viable cells, wild type MEF). Also, the “Mitochondrial membrane potential (JC-1 dye)” value in the data set on H460 cells is “decrease in their mitochondrial membrane potential”. In addition, the “Effect of Bcl-2 knockdown on effect in MDA-MB-468 cells” value in data set [5] (various concentrations, 24 h) is “Knockdown of Bcl-2 in MDA-MB-468 cells diminished the apoptotic effect of MTX”.
Consider `CCCCc1ccc(NC(=O)CN(Cc2ccccc2)S(C)(=O)=O)cc1` [BFC1103, N-2-benzyl-N-1-(4-butylphenyl)-N-2-(methylsulfo-nyl) glycinamide], for which the “Bcl-2 selective reduction … vs MDA-MB-231/Vector” value in data set [1] (24 h) is reported as “Bcl-2 dependent reduction in viability of MDA-MB-231 cells; also recorded: Bcl-2 selective induction of cell death”. Also, the “Viability of MDA-MB-231 with increased Bcl-2 vs control cells under hypoxic conditions” value in data set [1] (hypoxic conditions) is reported as “significant reduction in viability of MDA-MB-231 with increased Bcl-2 expression compared to the control cells”. The “Change … in MDA-MB-231/Bcl-2 cells” value on Bcl-2 (48 h) is “changed conformation of Bcl-2 of was detected in MDA-MB-231/Bcl-2 cells”. The “Proteolysis of Bcl-2 loop domain” value at Bcl-2 loop domain is given as “delayed the proteolysis of the loop domain of Bcl-2”. Also, the “Viability of normal mammary epithelial cells MCF-10A” value in data set [2] (24 h, 10% FBS) is recorded as “minimal effect on normal mammary epithelial cells (MCF-10A)”. In data set [3] (10 μM, 24 h, 10% serum), the “Bcl-2 dependent effect on viability, Jurkat/Bcl-2 vs control” value is “reduced the viability of Jurkat human T cell leukemia cells with high Bcl-2 expression, compared to control cells”. The “Bax/Bak dependence of effect” value in data set [4] is given as “wild type MEF cells, MEF cells without Bax or Bak expression had significant reduction in their viability compared to the double knockout (DKO) MEFs”. Moreover, the “Mitochondrial membrane potential (JC-1 dye)” value in the data set on H460 cells is listed as “decrease in their mitochondrial outer membrane potential”. Also, the “Effect of Bcl-2 knockdown on viability effect in MDA-MB-468 cells” value in data set [5] is reported as “Suppression of Bcl-2 expression reduced the effect of BFC1103”.
`CCOc1ccccc1NC(=O)c1cc(Cl)ccc1NC(=O)c1ccc(OC)cc1` [BFC1108, 5-chloro-N-(2-ethoxyphenyl)-2-[(4-methoxybenzoyl)amino]-benzamide]: the “Bcl-2 selective reduction … vs MDA-MB-231/Vector” value in data set [1] (24 h) is “better Bcl-2 selective induction of cell death”. In addition, the “Bcl-2 dependent reduction in viability, MDA-MB-231/Bcl-2 vs Vector” value in data set [1] (48 h) is “dose dependent reduction in viability of Bcl-2-high expressing cells (MDA-MB-231/Bcl-2), compared to their vector controls”. Besides, the “Change … in MDA-MB-231/Bcl-2 cells” value at Bcl-2 (48 h) is “changed conformation of Bcl-2 was detected”. Also, the “Proteolysis of Bcl-2 loop domain” value on Bcl-2 loop domain is listed as “increased proteolysis of Bcl-2 loop domain was noticeable by 4 min time point”. For the same compound, in data set [2] (48 h, 10% serum), the “Viability of normal mammary epithelial cells MCF-10A” value is on record as “No effect on the viability of MCF-10A cells”. The “Bcl-2 dependent effect on viability, Jurkat/Bcl-2 vs Jurkat/Vector” value in data set [3] (48 h, 10% FBS) was “reduction in viability was seen compared to their Bcl-2 low-expressing control cells”. Moreover, the “Bax/Bak dependence of effect” value in data set [4] was “no effect on viability in DKO MEFs, whereas Bax^−/− MEF and Bak^−/− MEF have diminished viability”. In addition, in the data set on H460 cells, the “Mitochondrial membrane potential (JC-1 dye)” value is given as “decreased mitochondrial membrane potential”. Further, the “Effect of Bcl-2 knockdown on viability effect in MDA-MB-468 cells” value in data set [5] is listed as “When Bcl-2 was knocked down, the cells were rescued from the effects of BFC1108”.
